Measurements: ChEMBL document CHEMBL5236550, “Small molecule selenium-containing compounds: Recent development and therapeutic applications” (Eur J Med Chem, 2021)
≈ marks a conversion by molar mass, not a printed value. One block for each molecule: values may come before it.

Assays:
[1] = Anticancer activity against human PMNL assessed as cell growth inhibition; format: functional, cell-based
Candida albicans [2] = experiment: Antifungal activity against Candida albicans ATC90028 assessed as zone of inhibition; format: functional
Candida albicans [3] = experiment: Antifungal activity against Candida albicans ATC90028 assessed as […] growth inhibition; format: functional
WM-115 = experiment: Anticancer activity against human WM-115 cells assessed as cell growth inhibition incubated for 72 hrs by MTT assay; format: functional
HeLa [4] = experiment: Anticancer activity against human HeLa cells assessed as cell growth inhibition incubated for 72 hrs by MTT assay; format: functional, cell-based
Pichia kudriavzevii = experiment: Antifungal activity against Candida krusei assessed as fungal growth inhibition incubated for 24 to 48 hrs by microdilution method; format: functional; conditions: time 24-48 hrs
Calu-1 = experiment: Anticancer activity against human HTB-54 cells assessed as cell growth inhibition incubated for 48 hrs by MTT assay; format: functional, cell-based; conditions: Calu-1, 48 h
NCI-H1299 = experiment: Anticancer activity against human H1299 cells assessed as cell growth inhibition incubated for 48 hrs by MTT assay; format: functional, cell-based; conditions: NCI-H1299, 48 h
[5] = Anticancer activity against human WM35 cells assessed as cell growth inhibition incubated for 72 hrs by MTS assay; format: functional, cell-based; conditions: WM35, 72 h, pooled result: one value given for 4 cell lines, strains, targets or settings
MCF7 [6] = experiment: Anticancer activity against human MCF7 cells assessed as cell growth inhibition incubated for 72 hrs by MTT assay; format: functional, cell-based; conditions: MCF7, 72 h
MDA-MB-231 = experiment: Anticancer activity against human MDA-MB-231 cells assessed as cell growth inhibition incubated for 72 hrs by MTT assay; format: functional, cell-based; conditions: MDA-MB-231, 72 h
[7] = Anticancer activity against human PMNL assessed as cell growth inhibition incubated for 5 mins by luminescence reader analysis; format: functional, cell-based
HepG2 = experiment: Anticancer activity against human HepG2 cells assessed as cell growth inhibition incubated for 48 hrs; format: functional, cell-based; conditions: HepG2, 48 h
HeLa [8] = experiment: Anticancer activity against human HeLa cells assessed as cell growth inhibition incubated for 48 hrs; format: functional, cell-based
[9] = Anticancer activity against human SWO-38 cells assessed as cell growth inhibition incubated for 48 hrs by MTT assay; format: functional, cell-based; conditions: SWO-38, 48 h
HeLa [10] = experiment: Anticancer activity against human HeLa cells assessed as cell growth inhibition incubated for 48 hrs by MTT assay; format: functional, cell-based
MDA-MB-361 = experiment: Anticancer activity against human MDA-MB-361 cells assessed as cell growth inhibition incubated for 48 hrs by MTT assay; format: functional, cell-based; conditions: MDA-MB-361, 48 h
K562 = experiment: Anticancer activity against human K562 cells assessed as cell growth inhibition incubated for 48 hrs by MTT assay; format: functional, cell-based; conditions: K562, 48 h
LS174T = experiment: Anticancer activity against human LS174T cells assessed as cell growth inhibition incubated for 48 hrs by MTT assay; format: functional, cell-based
PC-3 [11] = experiment: Anticancer activity against human PC-3 cells assessed as cell growth incubation incubated for 72 hrs by MTT assay; format: functional, cell-based; conditions: PC-3, 72 h
MCF7 [12] = experiment: Anticancer activity against human MCF7 cells assessed as cell growth incubation incubated for 72 hrs by MTT assay; format: functional, cell-based; conditions: MCF7, 72 h
MCF7 [13] = experiment: Anticancer activity against human MCF7 cells assessed as cell growth inhibition incubated for 48 hrs by MTT assay; format: functional, cell-based; conditions: MCF7, 48 h
MCF7 [14] = experiment: Anticancer activity against human MCF7 cells assessed as cell growth inhibition incubated for 24 hrs by ELISA based CCK8 assay; format: functional; conditions: MCF7, 24 h
EJ = experiment: Anticancer activity against human EJ cells assessed as cell growth inhibition incubated for 72 hrs by MTT assay; format: functional, cell-based
BGC-823 [15] = experiment: Anticancer activity against human BGC-823 cells assessed as cell growth inhibition measured upto 72 hrs by MTT assay; format: functional, cell-based; conditions: BGC-823, 72 h
PC-3 [16] = experiment: Anticancer activity against human PC-3 cells assessed as cell growth inhibition measured upto 72 hrs by MTT assay; format: functional, cell-based; conditions: PC-3, 72 h
Caco-2 [17] = experiment: Anticancer activity against human Caco-2 cells assessed as cell growth inhibition measured upto 72 hrs by MTT assay; format: functional, cell-based; conditions: Caco-2, 72 h
MCF7 [18] = experiment: Anticancer activity against human MCF7 cells assessed as cell growth inhibition measured upto 72 hrs by MTT assay; format: functional, cell-based; conditions: MCF7, 72 h
Plasmodium falciparum = experiment: […] inhibition incubated for 72 hrs by light microscopic analysis; format: functional, organism-based; conditions: K-1, 72 h
UACC-375 = experiment: Anticancer activity against human UACC-375 cells assessed as cell growth inhibition measured after 6 days by SRB assay; format: functional, cell-based
HT-29 = experiment: Anticancer activity against human HT-29 cells assessed as cell growth inhibition measured after 6 days by SRB assay; format: functional, cell-based; conditions: HT-29, 144 h
DU-145 = experiment: Anticancer activity against human DU-145 cells assessed as cell growth inhibition measured after 6 days by SRB assay; format: functional, cell-based; conditions: DU-145, 144 h
MCF7S = experiment: Anticancer activity against human MCF7S cells assessed as cell growth inhibition measured after 6 days by SRB assay; format: functional; conditions: time 6 day
A549 = experiment: Anticancer activity against human A549 cells assessed as cell growth inhibition measured after 6 days by SRB assay; format: functional, cell-based; conditions: A549, 144 h
Carbonic anhydrase 2 = Carbonic anhydrase 2 (Homo sapiens, UniProt P00918); experiment: Inhibition of human carbonic anhydrase 2 assessed as inhibition constant
Carbonic anhydrase 1 = Carbonic anhydrase 1 (Homo sapiens, UniProt P00915); experiment: Inhibition of human carbonic anhydrase 1 assessed as inhibition constant
Carbonic anhydrase 1, sequence (P00915 whole entry): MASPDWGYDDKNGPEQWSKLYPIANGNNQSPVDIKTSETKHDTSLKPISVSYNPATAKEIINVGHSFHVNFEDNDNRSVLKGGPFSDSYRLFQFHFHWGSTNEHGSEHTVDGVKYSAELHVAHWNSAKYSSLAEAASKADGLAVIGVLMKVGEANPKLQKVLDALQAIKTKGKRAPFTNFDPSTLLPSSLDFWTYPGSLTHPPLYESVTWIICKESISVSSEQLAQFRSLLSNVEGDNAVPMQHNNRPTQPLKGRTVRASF

PC-3 [19] = experiment: Anticancer activity against human PC-3 cells assessed as cell growth inhibition incubated for 72 hrs by MTT assay; format: functional, cell-based; conditions: PC-3, 72 h
Caco-2 [20] = experiment: Anticancer activity against human Caco-2 cells assessed as cell growth inhibition incubated for 72 hrs by MTT assay; format: functional, cell-based; conditions: Caco-2, 72 h
BGC-823 [21] = experiment: Anticancer activity against human BGC-823 cells assessed as cell growth inhibition incubated for 72 hrs by MTT assay; format: functional, cell-based; conditions: BGC-823, 72 h
SH-SY5Y = experiment: Anticancer activity against human SH-SY5Y cells assessed as cell viability incubated for 24 hrs by MTT assay relative to control; format: functional
T47D = experiment: Anticancer activity against human T47D cells assessed as cell growth inhibition; format: functional, cell-based
MCF7 [22] = experiment: Anticancer activity against human MCF7 cells assessed as cell growth inhibition; format: functional, cell-based

SMILES: CN(C)C(N)=[Se]
IC50 [1]: 6.8 µM

MIC (Candida albicans [3]): 12.5 mg/L (≈ 26.9 µM)
SMILES: O=C(C[C@@H](c1ccc(Cl)cc1)[C@@H]1CCCc2[se]nnc21)c1ccc(Cl)cc1
inhibition zone (IZ) (Candida albicans [2]): 15 mm

SMILES: N#C[Se]CCCCCC(=O)Nc1ccccc1
IC5 (WM-115): 0.8 µM

SMILES: O=[N+]([O-])c1ccc2n[se]nc2c1
IC50 (HeLa [4]): 4.8 µM

SMILES: FC(F)(F)c1ccc(-c2c[se]c(NN=C3CCSCC3)n2)cc1
MIC (Pichia kudriavzevii): 0.98 mg/L (≈ 2.42 µM)

SMILES: Cc1ccc(NC(=[Se])NC(=O)c2ccc3c(c2)OCO3)cc1
IC50 (Calu-1): 5.9 µM
IC50 (NCI-H1299): 1.5 µM

SMILES: Cc1ccc(-c2cc(C(F)(F)F)nn2-c2ccc(S(N)(=O)=O)cc2)cc1 [CELECOXIB]
IC50 [5]: 55.6 µM

SMILES: c1ccc2[nH]c(-c3ccc4n[se]nc4c3)nc2c1
IC50 (MCF7 [6]): 15.4 µM
IC50 (MDA-MB-231): 12.3 µM

SMILES: CCN(CC)C(=[Se])c1ccc(Cl)cc1
IC50 [7]: 20.3 µM

IC50 (HepG2): 4.45 µM
IC50 (HeLa [8]): 3.96 µM
SMILES: CN(C)c1ccc(/C=C/c2c3ccccc3c(/C=C/c3ccc(OCCCCCC[Se][Se]CCCCCCOc4ccc(/C=C/c5c6ccccc6c(/C=C/c6ccc(N(C)C)cc6)c6ccccc56)cc4)cc3)c3ccccc23)cc1

SMILES: Nc1ccc(-c2ccc3n[se]nc3c2)cc1N
IC50 [9]: 22.5 µM

SMILES: NC(=[Se])N/N=C/c1cccc2cccnc12
IC50 (HeLa [10]): 9.2 µM
IC50 (MDA-MB-361): 9.2 µM
IC50 (K562): 4 µM
IC50 (LS174T): 14.4 µM
IC50 (HeLa [8]): 6.6 µM

SMILES: O=C(O)C[Se]C(=O)Cc1ccccc1
IC50 (PC-3 [11]): 2.9 µM
IC50 (MCF7 [12]): 0.006 µM

SMILES: CCNCc1ccccc1[Se][Se]c1ccccc1CNCC
IC50 (MCF7 [13]): 15 µM

MIC (Candida albicans [3]): 12.5 mg/L (≈ 28.2 µM)
SMILES: Cc1ccc(C(=O)C[C@@H](c2ccc(Cl)cc2)[C@@H]2CCCc3[se]nnc32)cc1
inhibition zone (IZ) (Candida albicans [2]): 17 mm

MIC (Candida albicans [3]): 6.25 mg/L (≈ 18.1 µM)
SMILES: Clc1ccccc1C(c1ccccc1)(c1ccccc1)n1ccnc1 [CLOTRIMAZOLE]
inhibition zone (IZ) (Candida albicans [2]): 28 mm

SMILES: Clc1ccc([Se][Se]c2ccc(Cl)nn2)nn1
IC50 (MCF7 [14]): 10.3 µM

SMILES: COc1ccc(-c2nc3ccc(-c4ccc5n[se]nc5c4)cc3[nH]2)cc1
IC50 (EJ): 1.48 µM

IC50 (BGC-823 [15]): 1.9 µM
IC50 (PC-3 [16]): 1.9 µM
IC50 (Caco-2 [17]): 1.9 µM
IC50 (MCF7 [18]): 1.9 µM
SMILES: N#C[Se]CCCNC(=O)c1ccccc1Nc1cccc(C(F)(F)F)c1

IC50 (HT-29): 130 µM
IC50 (DU-145): 40 µM
IC50 (A549): 65 µM
SMILES: C[Se]CC[C@H](N)C(=O)O [SELENOMETHIONINE]
IC50 (Plasmodium falciparum): 45 µM
IC50 (UACC-375; Homo sapiens, UACC-375, 144 h): 50 µM
IC5 (UACC-375; time 6 day): 50 µM
IC5 (MCF7S): 45 µM

SMILES: [Se]=P(c1ccccn1)(c1ccccn1)c1ccccn1
Ki (Carbonic anhydrase 2): 0.0537 µM
Ki (Carbonic anhydrase 1): 0.0563 µM

IC50 (PC-3 [19]): 6.6 µM
IC50 (MCF7 [6]): 6.8 µM
IC50 (Caco-2 [20]): 3.9 µM
IC50 (BGC-823 [21]): 8.3 µM
SMILES: O=C(NCCC[Se][Se]CCCNC(=O)c1ccccc1Nc1cccc(C(F)(F)F)c1)c1ccccc1Nc1cccc(C(F)(F)F)c1

SMILES: NC(=[Se])N1CCCC1
IC50 [1]: 6.5 µM

SMILES: O=c1c2ccccc2[se]n1-c1ccccn1
Activity (SH-SY5Y): 84%

SMILES: O=C(NC(=[Se])Nc1ccccc1)c1cccs1
IC50 (T47D): 6.1 µM
IC50 (MCF7 [22]): 4.2 µM
